From patent US10722514B2 (FLX Bio, Inc., priority 2017, dated 2020)
Read-outs that look alike come from different tables or passages of the source.

Biological target: T1, recombinant full-length USP7 (Homo sapiens, UniProt Q93009)
T1 construct: A 25 μl reaction volume containing recombinant full-length USP7 (62 pM)
Assay: USP7-mediated ubiquitin-rhodamine cleavage assay
Assay type: biochemical
Conditions: recombinant full-length USP7 62 pM, ubiquitin-rhodamine 100 nM, 1 hour reaction at room temperature
Outline: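 Compounds are first incubated with 62 pM enzyme for 30 min at room temperature in pH 7.3 HEPES buffer containing TCEP and BSA. Cleavage of 100 nM ubiquitin-rhodamine proceeds for 1 h before an acid quench, and IC50 is derived from fluorescence.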

[1] = 30-minute incubation with compound, read-out: Potency: USP7 IC50
[2] = 30-minute pre-incubation, read-out: Potency (USP7 IC50)

T1 sequence (Q93009 whole entry): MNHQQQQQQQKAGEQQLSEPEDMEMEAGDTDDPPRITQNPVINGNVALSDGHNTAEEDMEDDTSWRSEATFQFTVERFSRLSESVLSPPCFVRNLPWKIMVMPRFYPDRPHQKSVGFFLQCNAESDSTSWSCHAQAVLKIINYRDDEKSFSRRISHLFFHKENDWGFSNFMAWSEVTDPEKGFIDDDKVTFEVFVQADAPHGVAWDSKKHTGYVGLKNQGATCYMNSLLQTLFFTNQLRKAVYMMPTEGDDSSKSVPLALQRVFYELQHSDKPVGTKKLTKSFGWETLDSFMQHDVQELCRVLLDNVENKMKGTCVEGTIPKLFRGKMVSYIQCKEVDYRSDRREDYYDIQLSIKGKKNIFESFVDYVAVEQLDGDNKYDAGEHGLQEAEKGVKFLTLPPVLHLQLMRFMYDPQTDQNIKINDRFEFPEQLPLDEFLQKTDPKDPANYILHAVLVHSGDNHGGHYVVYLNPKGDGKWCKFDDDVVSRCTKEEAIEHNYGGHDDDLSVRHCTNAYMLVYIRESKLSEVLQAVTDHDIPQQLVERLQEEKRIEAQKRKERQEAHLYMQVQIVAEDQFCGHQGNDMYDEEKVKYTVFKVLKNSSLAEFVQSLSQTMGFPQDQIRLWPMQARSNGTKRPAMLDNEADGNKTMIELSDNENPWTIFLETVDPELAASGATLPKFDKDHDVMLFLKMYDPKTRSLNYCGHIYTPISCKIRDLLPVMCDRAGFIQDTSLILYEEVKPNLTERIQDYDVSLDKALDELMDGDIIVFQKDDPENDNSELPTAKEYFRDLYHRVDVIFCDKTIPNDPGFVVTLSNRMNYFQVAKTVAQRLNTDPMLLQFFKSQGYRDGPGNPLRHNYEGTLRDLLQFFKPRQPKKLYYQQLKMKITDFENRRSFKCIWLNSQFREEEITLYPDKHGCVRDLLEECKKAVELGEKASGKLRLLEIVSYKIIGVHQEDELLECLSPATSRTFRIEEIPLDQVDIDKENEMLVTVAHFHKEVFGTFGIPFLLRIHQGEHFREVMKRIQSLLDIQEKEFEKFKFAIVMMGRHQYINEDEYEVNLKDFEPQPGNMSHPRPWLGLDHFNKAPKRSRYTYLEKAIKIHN

Row | IC50 [1] [nM] | IC50 [2] [nM] | Compound | further results
1 | > 30000 |  | Cc1cc(Cl)cc(-c2ccnc3ccsc23)c1OC1CCC(=O)NC1 (stereo not shown) [Example 198, 5-(4-Chloro-2-methyl-6-(thieno[3,2-b]pyridin-7-yl)phenoxy)piperidin-2-one] | 
2 | 10000 to 30000 |  | Cc1cc(Cl)cc(-c2ncnc3ccsc23)c1OCC1(C)CNC1 [Example 26, 4-(5-Chloro-3-methyl-2-((3-methylazetidin-3-yl)methoxy)phenyl)thieno[3,2-d]pyrimidine] | 
3 | < 1000 |  | Cc1cc(Cl)cc(-c2ccnc3cc(Cn4c(=O)ccn(C)c4=O)sc23)c1O[C@@H]1CNC[C@@H]1F [Example 151, 3-((7-(5-Chloro-2-(((3R,4S)-4-fluoropyrrolidin-3-yl)oxy)-3-methylphenyl)thieno[3,2-b]pyridin-2-yl)methyl)-1-methylpyrimidine-2,4(1H,3H)-dione] | 
4 | < 1000 |  | Cc1cc(Cl)cc(-c2ccnc3cc(CO)sc23)c1OCC1(C#N)CNC1 [Example 41, 3-((4-Chloro-2-(2-(hydroxymethyl)thieno[3,2-b]pyridin-7-yl)-6-methylphenoxy)methyl)azetidine-3-carbonitrile] | 
5 | 10000 to 30000 |  | CCC(O)c1cc2nccc(-c3cc(Cl)cc(C)c3OCC3CCNCC3)c2s1 (stereo not shown) [Example 204, 1-(7-(5-Chloro-3-methyl-2-(piperidin-4-ylmethoxy)phenyl)thieno[3,2-b]pyridin-2-yl)propan-1-ol] | 
6 | < 1000 |  | Cc1cc(Cl)cc(-c2ccnc3cc(CN4C(=O)CCC4=O)sc23)c1O[C@H]1CC[C@H](N)C1 [Example 127, 1-((7-(2-(((1S,3S)-3-Aminocyclopentyl)oxy)-5-chloro-3-methylphenyl)thieno[3,2-b]pyridin-2-yl)methyl)pyrrolidine-2,5-dione] | 
7 | < 1000 |  | Cc1cc(Cl)cc(-c2ccnc3cc(CN4C(=O)N(C)C(C)(C)C4=O)sc23)c1O[C@@H]1CNC[C@@H]1F [Example 155, 3-((7-(5-Chloro-2-(((3R,4S)-4-fluoropyrrolidin-3-yl)oxy)-3-methylphenyl)thieno[3,2-b]pyridin-2-yl)methyl)-1,5,5-trimethylimidazolidine-2,4-dione] | 
8 | < 1000 |  | Cc1cc(Cl)cc(-c2ccnc3cc(CN4C(=O)CCC4=O)sc23)c1O[C@@H]1CN(C(C)C)C[C@@H]1F [Example 323, 1-[[7-[5-chloro-2-[(3R,4S)-4-fluoro-1-isopropyl-pyrrolidin-3-yl]oxy-3-methyl-phenyl]thieno[3,2-b]pyridin-2-yl]methyl]pyrrolidine-2,5-dione] | 
9 | < 1000 |  | Cc1cc(Cl)cc(-c2ncnc3cc(CN4C(=O)CC(C)C4=O)sc23)c1O[C@@H]1CNC[C@@H]1F (stereo partly drawn) [Example 378, 1-[[4-[5-chloro-2-[(3R,4S)-4-fluoropyrrolidin-3-yl]oxy-3-methyl-phenyl]thieno[3,2-d]pyrimidin-6-yl]methyl]-3-methyl-pyrrolidine-2,5-dione; 2,2,2-trifluoroacetic acid] | 
10 |  | < 1000 | Cc1cc(Cl)cc(-c2ccnc3cc(Cn4c(=O)ccn(C)c4=O)sc23)c1OCC1CNC1 [Example 487, 3-[[7-[2-(azetidin-3-ylmethoxy)-5-chloro-3-methyl-phenyl]thieno[3,2-b]pyridin-2-yl]methyl]-1-methyl-pyrimidine-2,4-dione] | 
11 | 1000 to 10000 |  | CCC(O)c1cc2nccc(-c3cc(Cl)cc(C)c3O[C@@H]3CCNC3)c2s1 (stereo partly drawn) [Example 51, 1-(7-(5-Chloro-3-methyl-2-(((R)-pyrrolidin-3-yl)oxy)phenyl)thieno[3,2-b]pyridin-2-yl)propan-1-ol] | 
12 |  | < 1000 | Cc1cc([N+](=O)[O-])cc(-c2ccnc3cc(Cn4c(=O)ccn(CC(F)(F)F)c4=O)sc23)c1Oc1ccnn1C [Example 404, 3-[[7-[3-methyl-2-(2-methylpyrazol-3-yl)oxy-5-nitro-phenyl]thieno[3,2-b]pyridin-2-yl]methyl]-1-(2,2,2-trifluoroethyl)pyrimidine-2,4-dione; 2,2,2-trifluoroacetic acid] | 
13 |  | < 1000 | CC(=O)N1CCC[C@H](Oc2c(C)cc(Cl)cc2-c2ccnc3cc(Cn4c(=O)ccn(CC(F)(F)F)c4=O)sc23)C1 [Example 660, 3-[[7-[2-[[(3S)-1-acetyl-3-piperidyl]oxy]-5-chloro-3-methyl-phenyl]thieno[3,2-b]pyridin-2-yl]methyl]-1-(2,2,2-trifluoroethyl)pyrimidine-2,4-dione] | 
14 | 10000 to 30000 |  | Cc1cc(Cl)cc(-c2ccnc3ccsc23)c1OC1CC2CNC1C2 (stereo not shown) [Example 171, 7-(2-((2-Azabicyclo[2.2.1]heptan-6-yl)oxy)-5-chloro-3-methylphenyl)thieno[3,2-b]pyridine] | 
15 | < 1000 |  | O=C1CCC(=O)N1Cc1cc2nccc(-c3cc(Cl)cc(Br)c3O[C@@H]3CNC[C@@H]3F)c2s1 [Example 102, 1-((7-(3-Bromo-5-chloro-2-(((3R,4S)-4-fluoropyrrolidin-3-yl)oxy)phenyl)thieno[3,2-b]pyridin-2-yl)methyl)pyrrolidine-2,5-dione] | 
16 |  | < 1000 | Cc1cc(Cl)cc(-c2ncnc3cc(Cn4c(=O)ccn(CC(F)(F)F)c4=O)sc23)c1OC1CC2CNC1C2 (stereo not shown) [Example 526, 3-[[4-[2-(3-azabicyclo[2.2.1]heptan-5-yloxy)-5-chloro-3-methyl-phenyl]thieno[3,2-d]pyrimidin-6-yl]methyl]-1-(2,2,2-trifluoroethyl)pyrimidine-2,4-dione] | 
17 |  |  | Cc1cc(Cl)cc(-c2ccnc3cc(Cn4c(=O)ccn(CC(F)(F)F)c4=O)sc23)c1OC1CC2(COCCN2)C1 (stereo not shown) [Example 698, 3-[[7-[5-chloro-3-methyl-2-(8-oxa-5-azaspiro[3.5]nonan-2-yloxy)phenyl]thieno[3,2-b]pyridin-2-yl]methyl]-1-(2,2,2-trifluoroethyl)pyrimidine-2,4-dione] | IC50 (30-minute incubation, read-out: Potency (USP7 IC50)): < 1000 nM
18 |  | < 1000 | Cc1cc(Cl)cc(-c2ncnc3cc(Cn4c(=O)ccn(CC(F)(F)F)c4=O)sc23)c1O[C@@H]1CCNC[C@@H]1C [Example 520, 3-[[4-[5-chloro-3-methyl-2-[[(3S,4R)-3-methyl-4-piperidyl]oxy]phenyl]thieno[3,2-d]pyrimidin-6-yl]methyl]-1-(2,2,2-trifluoroethyl)pyrimidine-2,4-dione] | 
19 |  | < 1000 | Cc1cc(Cl)cc(-c2ncnc3cc(Cn4c(=O)ccn(C(C)C)c4=O)sc23)c1O[C@H]1CCCN(C(C)C)C1 [Example 513, 3-[[4-[5-chloro-2-[[(3S)-1-isopropyl-3-piperidyl]oxy]-3-methyl-phenyl]thieno[3,2-d]pyrimidin-6-yl]methyl]-1-isopropyl-pyrimidine-2,4-dione] | 
20 |  | < 1000 | Cc1cc(Cl)cc(-c2ccnc3cc(Cn4c(=O)ccn(CC(F)(F)F)c4=O)sc23)c1O[C@@H]1CNC[C@@H]1F [Example 485, 3-[[7-[5-chloro-2-[(3R,4S)-4-fluoropyrrolidin-3-yl]oxy-3-methyl-phenyl]thieno[3,2-b]pyridin-2-yl]methyl]-1-(2,2,2-trifluoroethyl)pyrimidine-2,4-dione] | 
21 | < 1000 |  | Cc1cc(Cl)cc(-c2ccnc3cc(CN4C(=O)CCCC4=O)sc23)c1O[C@H]1CCCNC1 [Example 237, (S)-1-((7-(5-Chloro-3-methyl-2-(piperidin-3-yloxy)phenyl)thieno[3,2-b]pyridin-2-yl)methyl)piperidine-2,6-dione] | 

Row | Compound | IC50 [1] [nM] | IC50 [2] [nM] | further results
22 | Cc1cc(Cl)cc(-c2ccnc3cc(Cn4c(=O)ccn(CC(F)(F)F)c4=O)sc23)c1OC1CCCC1 [Example 664, 3-[[7-[5-chloro-2-(cyclopentoxy)-3-methyl-phenyl]thieno[3,2-b]pyridin-2-yl]methyl]-1-(2,2,2-trifluoroethyl)pyrimidine-2,4-dione] |  | < 1000 | 
